{"source": "paper PMC7845544", "about": "(Frontiers in Pharmacology, 2021)", "origin": "cited, not measured here", "key": {"[1]": {"test_system": "human FSHR", "design": "method as in Gerrits et al., 2016", "details": "ref Gerrits et al., 2016; read-out: human FSHR-AA EC50; cited from earlier work"}, "[2]": {"molecular_target": "TSH receptor", "design": "method as in Gerrits et al., 2016", "details": "ref Gerrits et al., 2016, cited from earlier work"}, "[3]": {"test_system": "monkeys", "design": "method as in Gerrits et al., 2016", "details": "ref Gerrits et al., 2016, cited from earlier work"}, "[4]": {"test_system": "women", "design": "method as in Gerrits et al., 2016", "details": "up to 40 mg/day; ref Gerrits et al., 2016; cited from earlier work"}, "[5]": {"design": "method as in Ghobadi et al., 2009", "details": "ref Ghobadi et al., 2009; cited from earlier work"}}, "note": "pEC50: −log10 of the molar value."}
{"smiles": "COc1cc2c(cc1CC(C)C)-c1c(-c3cccs3)cc(C(=O)N(C)C(C)(C)C)n1CC2", "note": "[MK-8389]", "values": [{"measurement": "pEC50", "setting": "[1]", "value": 8.38}, {"measurement": "pEC50", "setting": "[2]; read-out: TSH receptor EC50", "value": 6.47}, {"measurement": "TSHR/FSHR", "setting": "[2]", "value": 81}, {"measurement": "dose for thyroid follicular cell hypertrophy", "setting": "[3]", "value": 23, "unit": "mg/kg"}, {"measurement": "fold separation between ovarian and thyroid stimulation", "setting": "[3]", "value": 10, "unit": "fold"}, {"measurement": "dose required for folliculogenesis", "setting": "[3]; twice daily", "value": 2.25, "unit": "mg/kg"}, {"measurement": "follicular growth in human phase one study", "setting": "[4]", "value": "failed to induce follicular growth"}]}
{"smiles": "CCN(CC)CCOc1ccc(C(=C(Cl)c2ccccc2)c2ccccc2)cc1", "note": "[clomiphene]", "values": [{"measurement": "elimination from blood", "setting": "[5]", "value": "≥ 72", "unit": "h"}]}
